US10227380B2, “Triazole-crosslinked and thioether-crosslinked peptidomimetic macrocycles” (AILERON THERAPEUTICS, INC., priority 2012, dated 2019)
Bridge positions count the residues as written; N and C are the ends. Square brackets hold non-standard residues; d marks the D form. * marks the point of attachment. 5FAM = O=C1OC2(c3ccc(O)cc3Oc3cc(O)ccc32)c2ccc(C(=O)*)cc21; Cba = N[C@@H](CC1CCC1)C(=O)O; βAla = NCCC(=O)O

Columns and labels:
SJSA-1 cells = assay: Cell Viability Assay (MTT), SJSA-1; type: cell-based; conditions: read-out: SJSA-1 EC50 (72 h)
Procedure: The assay is performed according to the following general protocol: • Cell Plating: Trypsinize, count and seed cells at the pre-determined densities in 96-well plates a day prior to assay.
Add 180 μL of the assay media per well. Control wells with no cells, receive 200 μl media.
Peptide dilution: all dilutions are made at room temperature and added to cells at room temperature. • Prepare 10 mM stocks of the peptides in DMSO. Serially dilute the stock using 1:3 dilution scheme to get 10, 3.3, 1.1, 0.33, 0.11, 0.03, 0.01 mM solutions using DMSO as diluents. […] Also prepare DMSO/sterile water (3% DMSO) mix for control wells. • Thus the working stocks concentration range μM will be 300, 100, 30, 10, 3, 1, 0.3 and 0 μM. […] H1-H3 will receive 20 ul of assay media. H4-H9 will receive 20 ul of 3% DMSO-water vehicle. […] Nutlin was diluted using the same dilution scheme as peptides.
(20 μl of 300 μM peptide+180 μl of cells in media=30 μM final concentration in 200 μl volume in wells). Mix gently a few times using pipette. […] Viability of SJSA-1, RKO, RKO-E6, HCT-116 cells is determined on day 3, MCF-7 cells on day 5 and SW-480 cells on day 6. At the end of designated incubation time, allow the plates to come to room temperature. Remove 80 μl of assay media from each well. Add 15 μl of thawed MTT reagent to each well. • Allow plate to incubate for 2 h at 37° C. in humidified 5% CO2 atmosphere and add 100 μl solubilization reagent as per manufacturer's protocol.

MDM2 = MDM2 (Homo sapiens, UniProt Q00987); assay: Competitive Fluorescence Polarization Assay for MDM2; type: binding
Sequence of MDM2 (Q00987 1-125): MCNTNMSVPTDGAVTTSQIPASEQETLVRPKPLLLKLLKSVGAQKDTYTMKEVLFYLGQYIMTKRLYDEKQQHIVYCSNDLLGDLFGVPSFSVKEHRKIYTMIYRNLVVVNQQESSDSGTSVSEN
Procedure: Competitive Fluorescence Polarization Assay for MDM2
The assay is performed according to the following general protocol: • 1. Dilute MDM2 (In-house, 41 kD) into FP buffer (High salt buffer-200 mM Nacl, 5 mM CHAPS, pH 7.5) to make 84 nM (2×) working stock solution. • 2. Add 20 μl of 84 nM (2×) of protein stock solution into each well of 96-well black HE microplate (Molecular Devices) • 3. Dilute 1 mM (in 100% DMSO) of FAM labeled linear peptide with DMSO to 100 μM (dilution 1:10). Then, dilute from 100 μM to 10 μM with water (dilution 1:10) and then dilute with FP buffer from 10 μM to 40 nM (dilution 1:250). This is the working solution which will be a 10 nM concentration in well (dilution 1:4). Keep the diluted FAM labeled peptide in the dark until use. • 4. Make unlabeled peptide dose plate with FP buffer starting with 1 μM (final) of peptide and making 5 fold serial dilutions for 6 points using following dilution scheme. • Dilute 10 mM (in 100% DMSO) with DMSO to 5 mM (dilution 1:2). Then, dilute from 5 mM to 500 μM with H2O (dilution 1:10) and then dilute with FP buffer from 500 μM to 20 μM (dilution 1:25). Making 5 fold serial dilutions from 4 μM (4×) for 6 points. • 5. Transfer 10 μl of serial diluted unlabeled peptides to each well which is filled with 20 μl of 84 nM of protein. • 6. Add 10 μl of […] of FAM labeled peptide into each well and incubate for 3 hr to read. […]

MDMX = biological target: T1, MDMX (Homo sapiens, UniProt O15151); assay: Competitive Fluorescence Polarization Assay for MDMX; type: binding
T1 sequence (O15151 1-125): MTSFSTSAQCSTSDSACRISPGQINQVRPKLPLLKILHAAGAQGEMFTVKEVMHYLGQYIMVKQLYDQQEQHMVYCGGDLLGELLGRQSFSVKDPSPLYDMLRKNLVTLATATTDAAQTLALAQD
Procedure: Competitive Fluorescence Polarization Assay for MDMX
The assay is performed according to the following general protocol: • 1. Dilute MDMX (In-house, 40 kD) into FP buffer (High salt buffer-200 mM Nacl, 5 mM CHAPS, pH 7.5.) to make 300 nM (2×) working stock solution. 2. Add 20 μl of 300 nM (2×) of protein stock solution into each well of 96-well black HE microplate (Molecular Devices) • 3. Dilute 1 mM (in 100% DMSO) of FAM labeled linear peptide with DMSO to 100 μM (dilution 1:10). Then, dilute from 100 μM to 10 μM with water (dilution 1:10) and then dilute with FP buffer from 10 μM to 40 nM (dilution 1:250). This is the working solution which will be a 10 nM concentration in well (dilution 1:4). Keep the diluted FAM labeled peptide in the dark until use. • 4. Make unlabeled peptide dose plate with FP buffer starting with 5 μM (final) of peptide and making 5 fold serial dilutions for 6 points using following dilution scheme. • 5. Dilute 10 mM (in 100% DMSO) with DMSO to 5 mM (dilution 1:2). Then, dilute from 5 mM to 500 μM with H2O (dilution 1:10) and then dilute with FP buffer from 500 μM to 20 μM (dilution 1:25). Making 5 fold serial dilutions from 20 μM (4×) for 6 points. • 6. Transfer 10 μl of serial diluted unlabeled peptides to each well which is filled with 20 μl of 300 nM of protein. • 7. Add 10 μl of […] of FAM labeled peptide into each well and incubate for 3 hr to read. […]

| Substance | EC50 (SJSA-1 cells) | Ki (MDM2) | Ki (MDMX) |
| --- | --- | --- | --- |
| 452 (Ac-LTF[Alpha‑Me R‑azide 1,5 triazole (6 carbon) alanine]AYWAQL[Alpha‑Me alkyne 1,5 triazole (5 carbon) alanine]AAAAA[dA]-NH2; triazole 4-11; not fully specified; printed as Ac-LTF$5rn6AYWAQL$5a5AAAAAa-NH2) [compound 452] | > 30 µM |  |  |
| 461 (5FAM-[βAla]LTF[Alpha‑Me R‑azide 1,4 triazole (6 carbon) alanine]EYWAQ[Cba][Alpha‑Me alkyne 1,4 triazole (5 carbon) alanine]SAA-NH2; triazole 5-12; not fully specified) [compound 461] | 5 to 15 µM |  |  |
| 463 (5FAM-[βAla]LTF[Alpha‑Me R‑azide 1,5 triazole (6 carbon) alanine]EYWAQ[Cba][Alpha‑Me alkyne 1,5 triazole (5 carbon) alanine]SAA-NH2; triazole 5-12; not fully specified) [compound 463] | 15 to 30 µM |  |  |
| 464 (5FAM-[βAla]LTA[Alpha‑Me R‑azide 1,5 triazole (6 carbon) alanine]EYWAQ[Cba][Alpha‑Me alkyne 1,5 triazole (5 carbon) alanine]SAA-NH2; triazole 5-12; not fully specified) [compound 464] | > 30 µM |  |  |
| 466 (LTFAEYWAQAASAA; not fully specified; stapled, Ac, NH2, Cba5Prp; N-term Ac; MOD_RES (4)..(4): Alpha-Me R-azide 1,4 triazole (6 carbon) alanine olefin amino acid connected by an all-carbon crosslinker comprising one double bond; misc_feature (4)..(11): Crosslink between residues; MOD_RES () [compound 466] |  | < 0.01 µM | < 0.01 µM |
